Test results: publication PMC6222660, “Antiviral 4-Hydroxypleurogrisein and Antimicrobial Pleurotin Derivatives from Cultures of the Nematophagous Basidiomycete Hohenbuehelia grisea” (Molecules : A Journal of Synthetic Chemistry and Natural …, 2018)
Converted amounts (≈) assume the structure as drawn. Like-named read-outs stand apart in the source and are kept apart here.

How the values were obtained:
Assay type in all cases: cell-based
[1] = tested on: Bacillus subtilis DSM10; experiment: MIC serial dilution assay; set-up: key: -: no inhibition observed under test conditions; conditions: highest concentration 67 or 100 µg/mL
Text: (§1) The minimum inhibitory concentration (MIC) for each compound was ascertained in a serial dilution assay in 96-well microtiter plates, as previously published by Kuhnert et al., using YM media for yeasts and filamentous fungi and BD^TM Difco™ Mueller Hinton Broth for bacteria.

[2] = tested on: Candida albicans DSM1665; experiment: MIC serial dilution assay; set-up: key: -: no inhibition observed under test conditions; conditions: highest concentration 67 or 100 µg/mL
Text: as §1

[3] = tested on: Candida tenuis MUCL29892; experiment: MIC serial dilution assay; set-up: key: -: no inhibition observed under test conditions; conditions: highest concentration 67 or 100 µg/mL
Text: as §1

[4] = tested on: Micrococcus luteus DSM1790; experiment: MIC serial dilution assay; set-up: key: -: no inhibition observed under test conditions; conditions: highest concentration 67 or 100 µg/mL
Text: as §1

[5] = tested on: Mucor hiemalis DSM2656; experiment: MIC serial dilution assay; set-up: key: -: no inhibition observed under test conditions; conditions: highest concentration 67 or 100 µg/mL
Text: as §1

[6] = tested on: Mucor plumbeus MUCL49355; experiment: MIC serial dilution assay; set-up: key: -: no inhibition observed under test conditions; conditions: highest concentration 67 or 100 µg/mL
Text: as §1

[7] = tested on: Pichia anomala DSM6766; experiment: MIC serial dilution assay; set-up: key: -: no inhibition observed under test conditions; conditions: highest concentration 67 or 100 µg/mL
Text: as §1

[8] = tested on: Rhodotorula glutinis DSM10134; experiment: MIC serial dilution assay; set-up: key: -: no inhibition observed under test conditions; conditions: highest concentration 67 or 100 µg/mL
Text: as §1

[9] = tested on: Staphylococcus aureus DSM346; experiment: MIC serial dilution assay; set-up: key: -: no inhibition observed under test conditions; conditions: highest concentration 67 or 100 µg/mL
Text: as §1

[10] = tested on: cervix carcinoma cell line KB3.1; experiment: In vitro cytotoxicity assay; conditions: Homo sapiens, KB 3-1, 120 h, 6 × 10^3 cells/well, treated over five days
Experimental: (§2) In vitro cytotoxicity assay was performed as described by Richter et al. against the mouse fibroblast cell line L929 and the cervix carcinoma cell line KB3.1.

[11] = tested on: mouse fibroblast cell line L929; experiment: In vitro cytotoxicity assay; conditions: 120 h, 6 × 10^3 cells/well, treated over five days
Experimental: as §2

[12] = tested on: hepatitis C virus (HCV); experiment: Inhibitory effects on HCV infectivity (Renilla luciferase reporter virus in Huh-7.5 cells); conditions: for activity in the HCV assay in vitro: Huh-7.5 host cells
Experimental: (§3) Figure 4 Antiviral activity of 4-hydroxypleurogrisin (11). NC-Negative control, EGCG-Positive control. HCV assay was performed in triplicates and is presented as the mean ± standard deviation. The asterisk indicates statistically significant differences (* p ≤ 0.05, ** p ≤ 0.01, *** p ≤ 0.001). Huh-7.5 cells were inoculated with RLuc-Jc1 reporter viruses in the presence of 4-hydroxypleurogrisein. The inoculum was removed 4 h later and monolayers were washed three times with PBS and overlaid with fresh medium containing no inhibitors. Infected cells were lysed three days later, and reporter virus infection was determined by renilla luciferase activity (top). The cell viability was measured by determination of firefly luciferase (bottom), which is stably expressed in the target cells.
This assay was carried out as described previously by Mulwa et al.. Huh7.5 cells stably expressing Firefly luciferase (Huh7.5 Fluc) were cultured in Dulbecco’s modified minimum essential medium (DMEM, Life Technologies, Darmstadt, Germany) containing 2 mM L glutamine, 1 × minimum essential medium nonessential amino acids (MEM NEAA, Life Technologies), 100 μg/mL streptomycin, 100 IU/mL penicillin (Life Technologies), 5 μg/mL blasticidin and 10% fetal bovine serum. Cells were maintained in a 37 °C environment with 5% CO2 supply. Cells were infected with Jc1-derived Renilla reporter viruses in the presence or absence of compounds as described previously. Infected cells were lysed and then frozen at −80 °C for 1 h following measurements of Renilla and Firefly luciferase activities on a Berthold Technologies Centro XS3 Microplate Luminometer (Bad Wildbad, Germany) as indicators of viral genome replication and cell viability, respectively.

[13] = tested on: Huh7.5 Fluc cells; experiment: Cell viability in HCV assay (firefly luciferase); conditions: at 20 ng/µL
Experimental: as §3
This assay was carried out as described previously by Mulwa et al.. Huh7.5 cells stably expressing Firefly luciferase (Huh7.5 Fluc) were cultured in Dulbecco’s modified minimum essential medium (DMEM, Life Technologies, Darmstadt, Germany) containing 2 mM L glutamine, 1 × minimum essential medium nonessential amino acids (MEM NEAA, Life Technologies), 100 μg/mL streptomycin, 100 IU/mL penicillin (Life Technologies), 5 μg/mL blasticidin and 10% fetal bovine serum. Cells were maintained in a 37 °C environment with 5% CO2 supply. […]

[14] = Yamadazyma tenuis, read-out: MIC
[15] = Hansenula anomala, read-out: MIC

Compound | MIC [2] | MIC [3, 14] | MIC [4] | MIC [5] | MIC [6] | MIC [7] | MIC [8] | MIC [9] | IC50 [10] | IC50 [11] | MIC [3] | MIC ([1]; read-out: MIC) | MIC ([9]; read-out: MIC) | other results
C=C1CO[C@@H]2c3c(O)ccc(O)c3[C@H]3OC(=O)[C@@H]4CC[C@H]5[C@@H]1CC[C@@]25[C@@H]34 [Compound 9, Nematoctone] | - | 25 µg/mL (≈ 70.5 µM) | - | - | - | - | - | - | 18 µg/mL (≈ 50.8 µM) | 21 µg/mL (≈ 59.3 µM) |  |  |  | MIC [1]: -
C[C@@H]1CO[C@@H]2C3=C(C(=O)C=CC3=O)[C@@H](O)[C@H]3[C@H](C(=O)O)CC[C@H]4[C@@H]1CC[C@@]324 [Compound 6, 14-Hydroxy-dihydropleurotinic acid] | - |  | - | - | - | - | - | - | 22 µg/mL (≈ 59.1 µM) | 23 µg/mL (≈ 61.8 µM) | - |  |  | MIC [1]: -
C[C@@H]1CO[C@@H]2C3=C(C(=O)C=CC3=O)[C@H]3OC(=O)[C@@H]4CC[C@H]5[C@@H]1CC[C@@]25[C@@H]34 [Compound 1, pleurotin] |  | 25 µg/mL (≈ 70.5 µM) |  |  |  |  |  |  | 8.5 µg/mL (≈ 24 µM) | 7.5 µg/mL (≈ 21.2 µM) |  | 50 µg/mL (≈ 141 µM) | 33.3 µg/mL (≈ 94 µM) | MIC ([2]; read-out: MIC): 33.3 µg/mL (≈ 94 µM); MIC ([4]; read-out: MIC): 66.7 µg/mL (≈ 188 µM); MIC ([5]; read-out: MIC): 8.3 µg/mL (≈ 23.4 µM); MIC ([6]; read-out: MIC): 100 µg/mL (≈ 282 µM); MIC [7, 15]: 66.7 µg/mL (≈ 188 µM); MIC ([8]; read-out: MIC): 16.7 µg/mL (≈ 47.1 µM)
C[C@H](CO)[C@H]1CC[C@]23C(=O)c4c(O)ccc(O)c4C(=O)[C@H]2[C@H](C(=O)O)CC[C@@H]13 [Compound 10, Di-oxo-leucopleurotinic acid] | - |  | - | - | - | - | - | - | 22 µg/mL (≈ 56.6 µM) | 22 µg/mL (≈ 56.6 µM) | - | 100 µg/mL (≈ 257 µM) |  | 
CC(C)(O)C1CCC23CC4=C(CC2C(O)(CO)CCC13)C(=O)C=CC4=O (stereo not drawn) [Compound 11, 4-Hydroxypleurogrisein] | - |  |  | - | - | - | - |  | 7.5 µg/mL (≈ 20.8 µM) | 6.9 µg/mL (≈ 19.1 µM) | - | 50 µg/mL (≈ 139 µM) | 33.3 µg/mL (≈ 92.4 µM) | MIC ([4]; read-out: MIC): 66.7 µg/mL (≈ 185 µM); IC50 ([12]; Hepatitis C virus, Huh7.5, read-out: IC50 of HCV infectivity): ~5 µg/mL (≈ 13.9 µM); activity in the HCV assay in vitro [12]: significant activities in vitro; inhibitory effect on HCV infectivity ([12]; at 10 ng/µL): strong inhibitory effect; cytotoxic effects (cell viability, firefly luciferase) [13]: cytotoxic effects were noted
Penicillin [reference compound] |  |  |  |  |  |  |  |  |  |  |  |  |  | MIC [1]: Penicillin (6.3) µg/mL
CC1COC2C3=C(CC4C(C(=O)O)CCC5C1(O)CCC245)C(=O)C=CC3=O (stereo not drawn) [Compound 5, 3-Hydroxy-dihydropleurotinic acid] | - | 100 µg/mL (≈ 269 µM) | - | - | - | - |  | - | 22 µg/mL (≈ 59.1 µM) | 22 µg/mL (≈ 59.1 µM) |  | 100 µg/mL (≈ 269 µM) |  | MIC ([8]; read-out: MIC): 33.3 µg/mL (≈ 89.4 µM); activity in the HCV assay in vitro [12]: devoid of any activity
CC1COC2C3=C(CC4C(C(=O)O)CCC5C1CCC245)C(=O)C=CC3=O (stereo not drawn) [Compound 3, dihydropleurotinic acid, reference compound] | - | 100 µg/mL (≈ 281 µM) | - |  |  |  |  |  | 18 µg/mL (≈ 50.5 µM) | 18 µg/mL (≈ 50.5 µM) |  | 100 µg/mL (≈ 281 µM) | 66.7 µg/mL (≈ 187 µM) | MIC ([5]; read-out: MIC): 16.7 µg/mL (≈ 46.9 µM); MIC ([6]; read-out: MIC): 100 µg/mL (≈ 281 µM); MIC [7, 15]: 66.7 µg/mL (≈ 187 µM); MIC ([8]; read-out: MIC): 33.3 µg/mL (≈ 93.4 µM)
C[C@@H]1CO[C@@H]2c3c(O)ccc(O)c3C(=O)[C@H]3[C@H](C(=O)O)CC[C@H]4[C@@H]1CC[C@@]243 [Compound 8, 14-oxo-leucopleuotinic acid] | - |  | - | - | - | - | - | - | 22 µg/mL (≈ 59.1 µM) | 22 µg/mL (≈ 59.1 µM) | - | 50 µg/mL (≈ 134 µM) |  | 
C[C@@H]1CO[C@@H]2c3c(O)ccc(O)c3C[C@H]3[C@H](C(=O)O)CC[C@H]4[C@@H]1CC[C@@]243 [Compound 7, Leucopleurotinic acid] | - |  | - | - | - | - | - | - | 20 µg/mL (≈ 55.8 µM) | 17 µg/mL (≈ 47.4 µM) | - |  |  | MIC [1]: -
CN(C)[C@@H]1C(O)=C(C(N)=O)C(=O)[C@@]2(O)C(O)=C3C(=O)c4c(O)cccc4[C@@](C)(O)[C@H]3[C@H](O)[C@@H]12 [Oxytetracycline, reference compound] |  |  |  |  |  |  |  |  |  |  |  |  | 6.7 µg/mL (≈ 14.6 µM) | MIC ([4]; read-out: MIC): 0.4 µg/mL (≈ 0.869 µM)
C/C(=C\c1csc(C)n1)[C@@H]1C[C@@H]2O[C@]2(C)CCC[C@H](C)[C@H](O)[C@@H](C)C(=O)C(C)(C)[C@@H](O)CC(=O)O1 [Epothilone B, reference compound] |  |  |  |  |  |  |  |  | 3e-05 µg/mL (≈ 5.91e-05 µM) | 0.00062 µg/mL (≈ 0.00122 µM) |  |  |  | 
C[C@@H]1CO[C@@H]2c3c(O)ccc(O)c3[C@H]3OC(=O)[C@@H]4CC[C@H]5[C@@H]1CC[C@@]25[C@@H]34 [Compound 2, leucopleurotin, reference compound] | - | 100 µg/mL (≈ 281 µM) |  |  | - |  |  |  | 2.8 µg/mL (≈ 7.86 µM) | 2.2 µg/mL (≈ 6.17 µM) |  | 25 µg/mL (≈ 70.1 µM) | 33.3 µg/mL (≈ 93.4 µM) | MIC ([4]; read-out: MIC): 66.7 µg/mL (≈ 187 µM); MIC ([5]; read-out: MIC): 33.3 µg/mL (≈ 93.4 µM); MIC [7, 15]: 66.7 µg/mL (≈ 187 µM); MIC ([8]; read-out: MIC): 33.3 µg/mL (≈ 93.4 µM)
C[C@@H]1[C@H](O)[C@@H](C)/C=C/C=C/CC/C=C/C=C/C=C/C=C/C(O[C@H]2O[C@H](C)[C@@H](O)[C@H](N)[C@@H]2O)CC2O[C@](O)(CC(O)C(O)CCC(O)CC(O)CC(O)CC(=O)O[C@H]1C)CC(O)C2C(=O)O (stereo partly drawn) [Nystatin, reference compound] | Nystatin (16.7) µg/mL |  |  | Nystatin (16.7) µg/mL | Nystatin (12.5) µg/mL | Nystatin (16.7) µg/mL | Nystatin (16.7) µg/mL |  |  |  | Nystatin (12.5) µg/mL |  |  | 
